# Laboratory results: patent publication US5089507A, “Heterocyclic piperidinyl compounds having analgesic effect” (Dr. L. Zambeletti SpA, priority 1988, dated 1992)
# Where a name gives a salt, the structure may show the parent alone.
# Tests used:
# Type in all cases: in vivo, Male Charles River mice (Swiss Strain)
# [1] = system: mice (p-phenylquinone-induced abdominal writhing); experiment: P-phenylquinone-induced abdominal writhing test in mice; settings: sc, 20 min pretreatment, p-phenylquinone 2 mg/Kg i.p.; for ED50: Mus musculus, 20 min, read-out: ANALGESIA M. WRITHING (GRADED) ED50
# Method: A) P-phenylquinone-induced abdominal writhing test in mice
# The methodology employed is based on that described by Sigmund et al, Proc. Soc. Exptl. Biol. 95, 729/1957, modified by Milne and Twomey, Agents and Actions, 10, 31/1980.
# Male Charles River mice (Swiss Strain), 25-36 g body weight, were used. Animals were allowed food and water ad libitum and were randomized into groups of 10 prior to experimentation. Test compounds were dissolved in either distilled water or distilled water plus 0.1M AMS, and administered by the subcutaneous route in a final volume of 10 ml/Kg. Control animals received 10 ml/Kg of the appropriate vehicle alone. Following a pretreatment period of 20 min., mice were injected intraperitoneally with p-phenylquinone, 2 mg/Kg at 37° C. in a final volume of […]. […] During this period the number of abdominal writhing responses per animal were recorded where writhing consists of an intermittent contraction of the abdomen associated with hind leg extension.
# The degree of antinociceptive protection afforded by the test compound was determined as the mean number of writhing responses observed in the treated group (T) expressed as a percentage of the mean number of writhing responses in the control group (C) according to the following formula:
# [1-(T/C]×100% graded protection
# mice (tail-flick) [2] = experiment: Tail-flick test in mice (quantal protection); settings: sc, 30 min pretreatment; for ED50: Mus musculus, 0.5 h, read-out: ANALGESIA M. TAIL-FLICK (QUANTAL) ED50; for ANALGESIA M. TAIL-FLICK (QUANTAL) ED50: 30 min
# Method: (§1) B) Tail-flick test in mice
# (§2) The methodology employed is based on that described by D'Amour and Smith, J. Pharmacol. Exp. Ther. 72, 74/1941.
# (§3) Male Charles River mice (Swiss Strain), 22-34 g body weight were used. Animals were allowed food and water ad libitum and were randomized into groups of 10 prior to experimentation.
# (§4) Test compounds were dissolved in either distilled water or distilled water plus 0.1M AMS and administered by the subcutaneous route in a final volume of 10 ml/Kg. Control animals received 10 ml/kg of the appropriate vehicle alone. Following a pretreatment period of 30 min., the mice were again placed under the heat source and the reaction tine re-determined.
# Percentage quantal protection was determined as the number of mice in which the reaction time was doubled compared to pretreatment values, expressed as a percentage of the total number of mice in the group.
# mice (tail-flick) [3] = experiment: Duration of action, M. tail-flick (graded), % activity at MTFQ ED50; settings: mouse, sc
# Method: as §1, §2, §3
# as §4, with “re-determined. […]” for “re-determined.”
SMILES,ED50 [1] [mg/kg],ED50 (mice (tail-flick) [2]) [mg/kg],ANALGESIA M. TAIL-FLICK (QUANTAL) % protection at 10 mg (mice (tail-flick) [2]; mouse) [%],ANALGESIA M. TAIL-FLICK (QUANTAL) ED50 (mice (tail-flick) [2]; mouse) [mg/kg],"DURATION OF ACTION M. TAIL-FLICK (GRADED) % ACTIVITY AT MTFQ ED50, 30' (mice (tail-flick) [3]) [%]","DURATION OF ACTION M. TAIL-FLICK (GRADED) % ACTIVITY AT MTFQ ED50, 90' (mice (tail-flick) [3]) [%]",ANALGESIA M. WRITHING (GRADED) ED50 ([1]; mouse) [mg/kg],"ANALGESIA M. TAIL-FLICK (QUANTAL) % protection at 1.78 mg/Kg (mice (tail-flick) [2]; mouse, 1.78 mg/Kg) [%]"
"O=C(Cc1ccc(Cl)c(Cl)c1)N1CCC[C@@H](O)[C@@H]1CN1CCCC1 (relative stereo) [Example 7, 1-(3,4-dichlorophenyl)acetyl-2-(pyrrolidin-1-yl)methyl-3-hydroxy piperidine hydrochloride diastereoisomer A trans]",0.141,0.825,–,–,–,–,–,–
"O=C(Cc1ccc(Cl)c(Cl)c1)N1CCC[C@H](O)[C@@H]1CN1CCCC1 (relative stereo) [Example 8, 1-(3,4-dichlorophenyl)acetyl-2-(pyrrolidin-1-yl)methyl-3-hydroxy piperidine hydrochloride diastereoisomer B cis]",–,–,20,–,–,–,–,–
"CC1CCCN(C(=O)Cc2ccc(Cl)c(Cl)c2)C1CN1CCCC1 (single isomer, unassigned) [Example 1, 1-(3,4-dichlorophenyl)acetyl-2-(pyrrolidin-1-yl)methyl-3-methyl piperidine hydrochloride hemihydrate diasteroisomer A]",0.093,–,–,0.405,87,68,–,–
"CC1CCCN(C(=O)Cc2ccc(Cl)c(Cl)c2)C1CN1CCCC1 (single isomer, unassigned) [Example 2, 1-(3,4-dichlorophenyl)acetyl-2-(pyrrolidin-1-yl)methyl-3-methyl piperidine hydrochloride diasteroisomer B]",–,–,–,0.147,66,44,0.091,–
"CC1CCC(CN2CCCC2)N(C(=O)Cc2ccc(Cl)c(Cl)c2)C1 (single isomer, unassigned) [Example 4, 1-(3,4-dichlorophenylacetyl)-2-(pyrrolidin-1-yl)methyl-5-methyl piperidine hydrochloride diasteroisomer A]",0.163,0.749,–,–,80,54,–,–
"CC1CCN(C(=O)Cc2ccc(Cl)c(Cl)c2)C(CN2CCCC2)C1 (single isomer, unassigned; diastereoisomer a) [Example 3, 1-(3,4-dichlorophenylacetyl)-2-(pyrrolidin-1-yl)methyl-4-methyl piperidine hydrochloride hemihydrate diastereoisomer A]",0.149,0.202,–,–,86,17,–,–
"CC1CCCC(CN2CCCC2)N1C(=O)Cc1ccc(Cl)c(Cl)c1 (single isomer, unassigned; diastereoisomer a) [Example 5, 1-(3,4-dichlorophenyl)acetyl-2-(pyrrolidin-1-yl)methyl-6-methyl piperidine hydrochloride diastereoisomer A]",0.03,0.135,–,–,83,42,–,–
"CC1CCCC(CN2CCCC2)N1C(=O)Cc1ccc(Cl)c(Cl)c1 (single isomer, unassigned; diastereoisomer a) [Example 6, 1-(3,4-dichlorophenyl)acetyl-2-(pyrrolidin-1-yl)methyl-6-methyl piperidine hydrochloride hemihydrate Diastereoisomer A]",–,–,–,–,77,35,–,60
"CC1(C)CCCN(C(=O)Cc2ccc(Cl)c(Cl)c2)C1CN1CCCC1 (stereo not drawn) [Example 9, 1-(3,4-dichlorophenyl)acetyl-2-(pyrrolidin-1-yl)methyl-3,3-dimethyl piperidine hydrochloride]",0.029,0.136,–,–,86,58,–,–
"CC1(C)CCCN(C(=O)Cc2ccc(C(F)(F)F)cc2)C1CN1CCCC1 (stereo not drawn) [Example 10, 1-(4-trifluoromethylphenyl)acetyl-2-(pyrrolidin-1-yl)methyl-3,3-dimethyl piperidine hydrochloride]",0.023,0.116,–,–,59,57,–,–
"CC1(C)CCC(CN2CCCC2)N(C(=O)Cc2ccc(Cl)c(Cl)c2)C1 (stereo not drawn) [Example 11, 1-(3,4-dichlorophenyl)acetyl-2-(pyrrolidin-1-yl)methyl-5,5-dimethyl piperidine hydrochloride]",0.605,1.16,–,–,59,57,–,–
"CC1(C)CCCN(C(=O)Cc2ccc3c(c2)CCCC3)C1CN1CCCC1 (stereo not drawn) [Example 12, 1-(5,6,7,8-tetrahydronapht-2-yl)acetyl-2-(pyrrolidin-1-yl) methyl-3,3-dimethyl piperidine hydrochloride]",0.273,1.21,–,–,67,65,–,–
"CC1(C)CCCN(C(=O)Cc2ccc3c(c2)CCCC3=O)C1CN1CCCC1 (stereo not drawn) [Example 13, 1-[1-oxo-3,4-dihydro-(2H)-napht-6-yl]acetyl-2-(pyrrolidin-1-yl)methyl-3,3-dimethyl piperidine]",–,–,60,–,–,–,–,–
"CC1(C)CCN(C(=O)Cc2ccc(Cl)c(Cl)c2)C(CN2CCCC2)C1 (stereo not drawn) [Example 14, 1-(3,4-dichlorophenyl)acetyl-2-(pyrrolidin-1-yl)methyl-4,4-dimethyl piperidine hydrochloride]",0.147,0.824,–,–,69,69,–,–
"CC1(C)CCN(C(=O)Cc2ccc(C(F)(F)F)cc2)C(CN2CCCC2)C1 (stereo not drawn) [Example 15, 1-(4-trifluoromethylphenyl)acetyl-2-(pyrrolidin-1-yl)methyl-4,4-dimethyl piperidine hydrochloride]",0.242,1.8,–,–,58,63,–,–
